A short description of series [1]: Drug uptake in iv dosed Wistar rat brain assessed as standardized uptake value after 120 mins by PET imaging analysis. It counts as ADME, organism-based. To be noted: in vivo, 2 h.
Series [2] is described as follows: Drug uptake in iv dosed monkey brain assessed as standardized uptake value after 90 mins by PET imaging analysis. It counts as ADME, organism-based, Macaca mulatta. The following applies: rhesus monkey, in vivo, 1.5 h.
A short description of series [3]: Drug metabolism in iv dosed Wistar rat blood assessed as metabolite formation after 30 mins RP-HPLC analysis. It counts as ADME, organism-based. The following applies: in vivo, 0.5 h.
Series [4] in a line: Drug uptake in iv dosed Wistar rat brain after 3 mins. It counts as ADME, organism-based. To be noted: in vivo, 0.05 h.
Series [5] in a line: Drug metabolism in iv dosed Wistar rat brain assessed as metabolite formation after 30 to 90 mins RP-HPLC analysis. It counts as ADME, organism-based. To be noted: in vivo, time 30-90 min.
The nature of series [6]: Drug uptake in iv dosed mouse brain assessed as standardized uptake value by PET imaging analysis. To be noted: in vivo. The class given is ADME, organism-based.
Series [7] is described as follows: Drug uptake in iv dosed mouse liver assessed as standardized uptake value at 5 mins by PET imaging analysis. The following applies: in vivo. The class given is ADME, organism-based.
The nature of series [8]: Drug uptake in iv dosed mouse liver assessed as standardized uptake value at 60 mins by PET imaging analysis. It counts as ADME, organism-based. To be noted: in vivo, 1 h.
Series [9] can be described thus: Drug uptake in iv dosed Wistar rat assessed as standardized uptake value by PET imaging analysis. The class given is ADME, organism-based. The following applies: in vivo.

The structures appear in SMILES notation. Where only a bound is given, the exact number is not on record here.

Regarding `CC(C)=CCC/C(C)=C/CC/C(C)=C/C=C/C([11CH3])=C/C(=O)O`, the SUV in [1] was 1.4; in series [2], above 3; in series [6], 0.8; in series [7] it was 6.7; in series [8], 4.3. The Drug metabolism result in [3] and in series [5] was “Metabolite_Detected” in each case. Moreover, the Drug uptake result in series [4] is “Active”.
`CC(C)=CCC/C(C)=C/CC/C(C)=C/C=C/C([11CH3])=C/C(=O)OCc1ccccc1`: in [9], the SUV is reported as 0.6.

Source of the values: ChEMBL document CHEMBL5252604, “11C-Labeling of acyclic retinoid peretinoin by rapid C-[11C]methylation to disclose novel brain permeability and central nervous system activities hidden in antitumor agent” (Bioorg Med Chem Lett, 2023).
